How the values were obtained:
barnyard grass [1] = experiment: Test Example 3: herbicidal effect by foliage application, Wagner pot (Table 18, symbol H); format: in vivo, barnyard grass (Echinochloa crus-galli); conditions: 320 g/ha
Summary of the method: (§1)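 Plants were sown in alluvial soil held under 0.1–0.5 cm standing water and grown 14 days in a greenhouse at 25–30 °C. An emulsifiable formulation, water-diluted to the set dose, was then sprayed onto the foliage, and effects were scored three weeks later using previously defined criteria.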

Chinese sprangletop = experiment: Test Example 3: herbicidal effect by foliage application, Wagner pot (Table 18, symbol D); format: in vivo, chinese sprangletop (Leptochloa chinensis); conditions: 320 g/ha
Summary of the method: as §1

rice flat sedge = experiment: Test Example 3: herbicidal effect by foliage application, Wagner pot (Table 18, symbol E); format: in vivo, rice flat sedge (Cyperus iria); conditions: 320 g/ha
Summary of the method: as §1

southern crabgrass [2] = experiment: Test Example 4: herbicidal effect by soil treatment (Table 19, symbol F); format: in vivo, southern crabgrass (Digitaria ciliaris); conditions: amount of applied herbicide 320 g/ha
Summary of the method: (§2)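 Scoring uses the grading scale of an earlier test, three weeks post-application. Treatment consists of spraying a diluted emulsion formulation across the surface of sterilized diluvial soil in which seeds are buried near 1.5 cm deep; boxes are kept in a greenhouse between 25° C. and 30° C.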

green foxtail [3] = experiment: Test Example 4: herbicidal effect by soil treatment (Table 19, symbol G); format: in vivo, green foxtail (Setaria viridis); conditions: amount of applied herbicide 320 g/ha
Summary of the method: as §2

barnyard grass [4] = experiment: Test Example 4: herbicidal effect by soil treatment (Table 19, symbol H); format: in vivo, barnyard grass (Echinochloa crus-galli); conditions: amount of applied herbicide 320 g/ha
Summary of the method: as §2

wild oat [5] = experiment: Test Example 4: herbicidal effect by soil treatment (Table 19, symbol I); format: in vivo, wild oat (Avena fatua); conditions: amount of applied herbicide 320 g/ha
Summary of the method: as §2

blackgrass [6] = experiment: Test Example 4: herbicidal effect by soil treatment (Table 19, symbol J); format: in vivo, blackgrass (Alopecurus myosuroides); conditions: amount of applied herbicide 320 g/ha
Summary of the method: as §2

Italian ryegrass [7] = experiment: Test Example 4: herbicidal effect by soil treatment (Table 19, symbol K); format: in vivo, Italian ryegrass (Lolium multiflorum); conditions: amount of applied herbicide 320 g/ha
Summary of the method: as §2

windgrass [8] = experiment: Test Example 4: herbicidal effect by soil treatment (Table 19, symbol L); format: in vivo, windgrass (Apera spica-venti); conditions: amount of applied herbicide 320 g/ha
Summary of the method: as §2

velvetleaf [9] = experiment: Test Example 4: herbicidal effect by soil treatment (Table 19, symbol M); format: in vivo, velvetleaf (Abutilon theophrasti); conditions: amount of applied herbicide 320 g/ha
Summary of the method: as §2

redroot pigweed [10] = experiment: Test Example 4: herbicidal effect by soil treatment (Table 19, symbol N); format: in vivo, redroot pigweed (Amaranthus retroflexus); conditions: amount of applied herbicide 320 g/ha
Summary of the method: as §2

lambsquarters [11] = experiment: Test Example 4: herbicidal effect by soil treatment (Table 19, symbol O); format: in vivo, lambsquarters (Chenopodium album); conditions: amount of applied herbicide 320 g/ha
Summary of the method: as §2

chickweed [12] = experiment: Test Example 4: herbicidal effect by soil treatment (Table 19, symbol P); format: in vivo, common chickweed (Stellaria media); conditions: amount of applied herbicide 320 g/ha
Summary of the method: as §2

false cleavers [13] = experiment: Test Example 4: herbicidal effect by soil treatment (Table 19, symbol Q); format: in vivo, false cleavers (Galium spurium); conditions: amount of applied herbicide 320 g/ha
Summary of the method: as §2

persian speedwell [14] = experiment: Test Example 4: herbicidal effect by soil treatment (Table 19, symbol R); format: in vivo, Persian speedwell (Veronica persica); conditions: amount of applied herbicide 320 g/ha
Summary of the method: as §2

southern crabgrass [15] = experiment: Test Example 5: herbicidal effect by foliage application, plastic box (Table 20, symbol F); format: in vivo, southern crabgrass (Digitaria ciliaris); conditions: foliage application, 320 g/ha, three weeks after application
Summary of the method: (§3)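 Post-emergence foliar test in sterilized diluvial soil. Compound applied as water-diluted emulsion at a predetermined rate to 14-day-old plants; evaluation at three weeks.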

green foxtail [16] = experiment: Test Example 5: herbicidal effect by foliage application, plastic box (Table 20, symbol G); format: in vivo, green foxtail (Setaria viridis); conditions: foliage application, 320 g/ha, three weeks after application
Summary of the method: as §3

barnyard grass [17] = experiment: Test Example 5: herbicidal effect by foliage application, plastic box (Table 20, symbol H); format: in vivo, barnyard grass (Echinochloa crus-galli); conditions: foliage application, 320 g/ha, three weeks after application
Summary of the method: as §3

wild oat [18] = experiment: Test Example 5: herbicidal effect by foliage application, plastic box (Table 20, symbol I); format: in vivo, wild oat (Avena fatua); conditions: foliage application, 320 g/ha, three weeks after application
Summary of the method: as §3

blackgrass [19] = experiment: Test Example 5: herbicidal effect by foliage application, plastic box (Table 20, symbol J); format: in vivo, blackgrass (Alopecurus myosuroides); conditions: foliage application, 320 g/ha, three weeks after application
Summary of the method: as §3

Italian ryegrass [20] = experiment: Test Example 5: herbicidal effect by foliage application, plastic box (Table 20, symbol K); format: in vivo, Italian ryegrass (Lolium multiflorum); conditions: foliage application, 320 g/ha, three weeks after application
Summary of the method: as §3

windgrass [21] = experiment: Test Example 5: herbicidal effect by foliage application, plastic box (Table 20, symbol L); format: in vivo, windgrass (Apera spica-venti); conditions: foliage application, 320 g/ha, three weeks after application
Summary of the method: as §3

velvetleaf [22] = experiment: Test Example 5: herbicidal effect by foliage application, plastic box (Table 20, symbol M); format: in vivo, velvetleaf (Abutilon theophrasti); conditions: foliage application, 320 g/ha, three weeks after application
Summary of the method: as §3

redroot pigweed [23] = experiment: Test Example 5: herbicidal effect by foliage application, plastic box (Table 20, symbol N); format: in vivo, redroot pigweed (Amaranthus retroflexus); conditions: foliage application, 320 g/ha, three weeks after application
Summary of the method: as §3

lambsquarters [24] = experiment: Test Example 5: herbicidal effect by foliage application, plastic box (Table 20, symbol O); format: in vivo, lambsquarters (Chenopodium album); conditions: foliage application, 320 g/ha, three weeks after application
Summary of the method: as §3

chickweed [25] = experiment: Test Example 5: herbicidal effect by foliage application, plastic box (Table 20, symbol P); format: in vivo, common chickweed (Stellaria media); conditions: foliage application, 320 g/ha, three weeks after application
Summary of the method: as §3

false cleavers [26] = experiment: Test Example 5: herbicidal effect by foliage application, plastic box (Table 20, symbol Q); format: in vivo, false cleavers (Galium spurium); conditions: foliage application, 320 g/ha, three weeks after application
Summary of the method: as §3

persian speedwell [27] = experiment: Test Example 5: herbicidal effect by foliage application, plastic box (Table 20, symbol R); format: in vivo, Persian speedwell (Veronica persica); conditions: foliage application, 320 g/ha, three weeks after application
Summary of the method: as §3

Row | Structure (SMILES) | herbicidal effect on barnyard grass (H) (barnyard grass [1]) | herbicidal effect on Chinese sprangletop (D) (Chinese sprangletop) | herbicidal effect on rice flat sedge (E) (rice flat sedge) | F: southern crabgrass, herbicidal effect grade (southern crabgrass [2]) | G: green foxtail, herbicidal effect grade (green foxtail [3]) | H: barnyard grass, herbicidal effect grade (barnyard grass [4]) | I: wild oat, herbicidal effect grade (wild oat [5]) | J: blackgrass, herbicidal effect grade (blackgrass [6]) | K: Italian ryegrass, herbicidal effect grade (Italian ryegrass [7]) | L: windgrass, herbicidal effect grade (windgrass [8]) | M: velvetleaf, herbicidal effect grade (velvetleaf [9]) | N: redroot pigweed, herbicidal effect grade (redroot pigweed [10]) | O: lambsquarters, herbicidal effect grade (lambsquarters [11]) | P: chickweed, herbicidal effect grade (chickweed [12]) | Q: false cleavers, herbicidal effect grade (false cleavers [13]) | R: persian speedwell, herbicidal effect grade (persian speedwell [14]) | F: southern crabgrass, herbicidal effect grade (southern crabgrass [15]) | G: green foxtail, herbicidal effect grade (green foxtail [16]) | H: barnyard grass, herbicidal effect grade (barnyard grass [17]) | I: wild oat, herbicidal effect grade (wild oat [18]) | further results
1 | CCCC(=O)Oc1c(C)nn(C)c(=O)c1-c1c(-c2ccc(OC(C)C)cc2)sc2cc(Cl)ccc12 [3-042] | 4 (Herbicidal rate of 70% or more and less than 90%) | 0 (Herbicidal rate of 5% or less (almost no effect)) | 3 (Herbicidal rate of 40% or more and less than 70%) | 0 (Herbicidal rate of 5% or less (almost no effect)) | 0 (Herbicidal rate of 5% or less (almost no effect)) | 0 (Herbicidal rate of 5% or less (almost no effect)) | 0 (Herbicidal rate of 5% or less (almost no effect)) | 0 (Herbicidal rate of 5% or less (almost no effect)) | 0 (Herbicidal rate of 5% or less (almost no effect)) | 0 (Herbicidal rate of 5% or less (almost no effect)) | 0 (Herbicidal rate of 5% or less (almost no effect)) | 3 (Herbicidal rate of 40% or more and less than 70%) | 0 (Herbicidal rate of 5% or less (almost no effect)) | 0 (Herbicidal rate of 5% or less (almost no effect)) | 0 (Herbicidal rate of 5% or less (almost no effect)) | 0 (Herbicidal rate of 5% or less (almost no effect)) | 0 (Herbicidal rate of 5% or less (almost no effect)) | 0 (Herbicidal rate of 5% or less (almost no effect)) | 0 (Herbicidal rate of 5% or less (almost no effect)) | 0 (Herbicidal rate of 5% or less (almost no effect)) | J: blackgrass, herbicidal effect grade (blackgrass [19]): 0 (Herbicidal rate of 5% or less (almost no effect)); K: Italian ryegrass, herbicidal effect grade (Italian ryegrass [20]): 0 (Herbicidal rate of 5% or less (almost no effect)); L: windgrass, herbicidal effect grade (windgrass [21]): 0 (Herbicidal rate of 5% or less (almost no effect)); M: velvetleaf, herbicidal effect grade (velvetleaf [22]): 3 (Herbicidal rate of 40% or more and less than 70%); N: redroot pigweed, herbicidal effect grade (redroot pigweed [23]): 3 (Herbicidal rate of 40% or more and less than 70%); O: lambsquarters, herbicidal effect grade (lambsquarters [24]): 3 (Herbicidal rate of 40% or more and less than 70%); P: chickweed, herbicidal effect grade (chickweed [25]): 0 (Herbicidal rate of 5% or less (almost no effect)); Q: false cleavers, herbicidal effect grade (false cleavers [26]): 0 (Herbicidal rate of 5% or less (almost no effect)); R: persian speedwell, herbicidal effect grade (persian speedwell [27]): 0 (Herbicidal rate of 5% or less (almost no effect))
2 | COc1ccc(-c2sc3cc(C)ccc3c2-c2c(O)c(C)nn(C)c2=O)cc1 [3-051] | 1 (Herbicidal rate of 5% or more and less than 20%) | 0 (Herbicidal rate of 5% or less (almost no effect)) | 3 (Herbicidal rate of 40% or more and less than 70%) | 0 (Herbicidal rate of 5% or less (almost no effect)) | 0 (Herbicidal rate of 5% or less (almost no effect)) | 0 (Herbicidal rate of 5% or less (almost no effect)) | 0 (Herbicidal rate of 5% or less (almost no effect)) | 0 (Herbicidal rate of 5% or less (almost no effect)) | 0 (Herbicidal rate of 5% or less (almost no effect)) | 0 (Herbicidal rate of 5% or less (almost no effect)) | 0 (Herbicidal rate of 5% or less (almost no effect)) | 0 (Herbicidal rate of 5% or less (almost no effect)) | 0 (Herbicidal rate of 5% or less (almost no effect)) | 0 (Herbicidal rate of 5% or less (almost no effect)) | 0 (Herbicidal rate of 5% or less (almost no effect)) | 4 (Herbicidal rate of 70% or more and less than 90%) | 0 (Herbicidal rate of 5% or less (almost no effect)) | 0 (Herbicidal rate of 5% or less (almost no effect)) | 0 (Herbicidal rate of 5% or less (almost no effect)) | 0 (Herbicidal rate of 5% or less (almost no effect)) | J: blackgrass, herbicidal effect grade (blackgrass [19]): 0 (Herbicidal rate of 5% or less (almost no effect)); K: Italian ryegrass, herbicidal effect grade (Italian ryegrass [20]): 1 (Herbicidal rate of 5% or more and less than 20%); L: windgrass, herbicidal effect grade (windgrass [21]): 0 (Herbicidal rate of 5% or less (almost no effect)); M: velvetleaf, herbicidal effect grade (velvetleaf [22]): 0 (Herbicidal rate of 5% or less (almost no effect)); N: redroot pigweed, herbicidal effect grade (redroot pigweed [23]): 0 (Herbicidal rate of 5% or less (almost no effect)); O: lambsquarters, herbicidal effect grade (lambsquarters [24]): 0 (Herbicidal rate of 5% or less (almost no effect)); P: chickweed, herbicidal effect grade (chickweed [25]): 4 (Herbicidal rate of 70% or more and less than 90%); Q: false cleavers, herbicidal effect grade (false cleavers [26]): 0 (Herbicidal rate of 5% or less (almost no effect)); R: persian speedwell, herbicidal effect grade (persian speedwell [27]): 5 (Herbicidal rate of 90% or more (almost completely withered))

From US20230085307A1, “PYRIDAZINONE COMPOUND AND HERBICIDE” (NISSAN CHEMICAL CORPORATION, priority 2019, published 2023)
